Measurements published in patent US8232099B2, “Method for transcription/degradation dual control of protein by antibiotic” (Japan Science and Technology Agency, priority 2007, dated 2012).
Residues, ends and D or L forms follow the SMILES beside them. *: point of attachment. Cbz = O=C(OCc1ccccc1)*

What was measured:
Assay type in all cases: cell-based, human
wild-type TetR-EGFP = target: T1, wild-type TetR-EGFP (Escherichia coli, UniProt P04483); assay: Flow cytometer fluorescence of HEp-2 cells expressing wild-type TetR-EGFP; conditions: 100 μg/ml MG132, 12 hours
T1 construct: prepare a DNA fragment encoding TetR with no termination codon; expressed in transfected cells; host or cells: human cell line HEp-2, vector pEB6CAG
Excerpt: (§1) All of or any two mutations in combination from three types of mutations, which substitute aspartic acid at the 95th position with asparagine, leucine at the 101st position with serine and glycine at the 102nd position with aspartic acid, were introduced into the tetracycline repressor (TetR), which is an Escherichia coli protein that binds to the antibiotic tetracycline (Tet). The procedure was as follows:
Next, cDNAs encoding TetR-EGFP in which wild-type TetR gene and mutation-introduced TetR gene, respectively, are fused with green fluorescent protein (EGFP) were created. The procedure was as follows.
(§2) An oligo-DNA was synthesized, having a base sequence in which the termination codon has been substituted so as to encode another amino acid instead of the termination codon in the TetR gene, and downstream thereof, a sequence that is recognized and cut by a restriction enzyme; this was used to carry out a PCR reaction to prepare a DNA fragment encoding TetR with no termination codon, and this was substituted with the corresponding site on the DNA encoding the wild-type gene. Then, the DNA was cut by a restriction enzyme and ligated with the upstream side of a DNA fragment encoding EGFP in such a way that the translation open reading frames for protein synthesis match (FIG. 1A). […]

pEB6CAG-TetRhCre = assay: Cre recombination reporter in HEp-2, control by protein degradation alone; conditions: 1.0 μg/ml doxycycline
Excerpt: (§3) As vectors to control the expression of the lambda phage Cre protein, three types of vectors were constructed for: control by protein degradation only, control by transcription only and dual control. […] The expression effect of Cre can be detected simply from this change in fluorescence wavelength (FIG. 10).

[1] = test system: pOSTet15-eTetREGFP and pOSTet15-hTetREGFP; assay: EGFP expression induction in HEp-2, dual control of transcription and degradation
Excerpt: A cDNA was integrated into the constitutive gene expression vector “pEB6CAG” or the vector “pOSTet15” enabling transcription-regulated expression through doxycycline, which the present inventors developed by applying the methods in Japanese National-phase PCT Laid-Open Patent Publication No. 2003-515314 (the entirety of which is incorporated herein by reference). The cDNA to be expressed integrates a simple fluorescent protein EGFP, or eTetREGFP or hTetREGFP, which degradation control is enabled by doxycycline. […]
Using a commercially available lipofection reagent, this DNA was introduced into the human cell line HEp-2, the cell line was cultured for four days in the presence of 1.5 mg/ml G418, and only cells with the DNA introduced were selected. These cells were subjected to a flow cytometer and the intensity of fluorescence by EGFP was measured cell by cell to determine the average fluorescence intensity thereof.

pOSTet15-hCre = assay: Cre recombination reporter in HEp-2, control by transcription alone; conditions: 1.0 μg/ml doxycycline
Excerpt: as §3

mutant TetR-EGFP = assay: Flow cytometer fluorescence of HEp-2 cells expressing mutant TetR-EGFP; conditions: various concentrations
Excerpt: as §1
An oligonucleotide encoding an amino acid sequence containing the amino acid substitution to be introduced was synthesized, and this was used to prepare a DNA fragment containing a mutation by PCR reaction. […]
as §2

pOSTet15-TetRhCre = assay: Cre recombination reporter (Venus to DsRed1) in HEp-2, dual control; parameters: cells displaying red fluorescence only: dose or concentration left out as unconfirmed
Excerpt: As vectors to control the expression of the […] Cre protein, three types of vectors were constructed for: control by protein degradation only, control by transcription only and dual control. […] Three types of vectors were constructed, “pEB6CAG-TetRhCre”, which enables control by degradation alone, and created by turning the hCre cDNA into TetRhCre which enables degradation control by doxycycline, and which was then integrated into the constitutive gene expression vector “pEB6CAG” described above; “pOSTet15-hCre”, which enables control by transcription alone and was created by integrating hCre cDNA into “pOSTet15”: “pOSTet15-TetRhCre”, which enables dual control and created by integrating TetRhCre into “pOSTet15”. In addition to these, as a monitoring vector for confirming the DNA recombination effect by the Cre protein, a recombination reporter vector in which the yellow fluorescent protein Venus was flanked by loxP sequences and the red fluorescent protein DsRed1 was placed downstream thereof, “pEB6CAG-Venus-lox-R1-SRZ” (FIG. 10), was also constructed. […] The expression effect of Cre can be detected simply from this change in fluorescence wavelength (FIG. 10).
Using a commercially available lipofection reagent, this DNA was introduced into the human cell line HEp-2, the cell line was cultured for four days in the presence of 1.5 mg/ml G418 and 0.1 mg/ml zeocin, and only cells with the two species of DNA introduced were selected. Fluorescences at two wavelengths, yellow and red, were measured with a flow cytometer.
Next, comparison on the capabilities was performed, between when Cre protein expression regulation is carried out by protein degradation control alone and transcription control alone, and the dual control system of the present invention. […]
Next, analyses were performed on the influence of the concentration of doxycycline exerted on recombination efficiency. Two species, the vector for Cre dual control and the recombination reporter vector described above, were introduced into a cell, and after selection over […] efficiency.

T1 sequence (P04483 whole entry, the tested form may be a part): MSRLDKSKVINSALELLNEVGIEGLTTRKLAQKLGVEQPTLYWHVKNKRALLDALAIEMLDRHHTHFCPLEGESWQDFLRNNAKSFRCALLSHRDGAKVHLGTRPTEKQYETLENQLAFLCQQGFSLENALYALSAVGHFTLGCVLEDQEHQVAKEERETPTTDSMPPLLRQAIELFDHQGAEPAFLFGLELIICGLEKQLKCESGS

Structure (SMILES)	change in intensity of fluorescence (wild-type TetR-EGFP)	cytotoxicity when doxycycline was added (pEB6CAG-TetRhCre)	induction ratio of fluorescence, doxycycline added vs not added [1] [times]	cytotoxicity when doxycycline was added (pOSTet15-hCre)	concentration at which enhancement of fluorescence started to be observed (mutant TetR-EGFP) [µg/mL]	concentration at which the maximum intensity of fluorescence was reached (mutant TetR-EGFP) [µg/mL]	cells displaying red fluorescence only (pOSTet15-TetRhCre) [%]	decrease in cell count due to cytotoxicity (pOSTet15-TetRhCre; 1.0 μg/ml doxycycline, treated for three days)	cells changed to red fluorescence (pOSTet15-TetRhCre; 1.0 μg/ml doxycycline, treatment of only one day) [%]	cells in which red fluorescence was detected (red only plus both yellow and red) (pOSTet15-TetRhCre; 1 mg/ml doxycycline) [%]	concentration needed to ensure that recombination occurs (pOSTet15-TetRhCre; four concentration steps from 0.001 μg/ml to 1.0 μg/ml) [µg/mL]
CC(C)C[C@@H](C=O)NC(=O)[C@H](CC(C)C)NC(=O)[C@H](CC(C)C)NC(=O)OCc1ccccc1 [MG132] (Cbz-Leu-Leu-Leu-aldehyde)	no major change	–	–	–	–	–	–	–	–	–	–
C[C@H]1c2cccc(O)c2C(=O)C2=C(O)[C@]3(O)C(=O)C(C(N)=O)=C(O)[C@@H](N(C)C)[C@@H]3[C@@H](O)[C@@H]21 [doxycycline]	–	killing cells	≥ 400	cytotoxicity was observed	≥ 0.05	1.5	60	almost no decrease in cell count	≥ 70	≥ 70	1.0
